Experimental findings from PMC9871955, “High-throughput screening of SARS-CoV-2 main and papain-like protease inhibitors” (Protein & Cell, 2022) are described below.

Read-outs that look alike come from different tables or passages of the source.

In one data set the target is SARS-CoV-2 M^pro (Severe acute respiratory syndrome coronavirus 2, UniProt P0DTD1). The data set can be described thus: biochemical.
The mark [1] stands for this setting: Table S1, M^pro inhibitors, 40 nmol/L enzyme, 20 µmol/L substrate, read-out: IC50.
[2] abbreviates: Table S1, M^pro inhibitors, same inhibitor concentration (10 µg/mL).
Where [3] appears, read: Table S2, PL^pro inhibitors, same inhibitor concentration.
Setting [4] is: Table S3, representative dual inhibitors, read-out: IC50 for M^pro.
The mark [5] stands for this setting: read-out: IC50 / inhibitory activity against M^pro.

As for `O=C1NC(=O)C(=Cc2ccc(-c3cccc(C(F)(F)F)c3)o2)C(=O)N1` [WNN3953-B007], the IC50 against SARS-CoV-2 M^pro (IC50 (μM) at S/KM 1) is 0.77 ± 0.14 µM; against SARS-CoV-2 M^pro (IC50 (μM) at S/KM 2), 0.53 ± 0.1 µM; at SARS-CoV-2 M^pro (setting [1]), 0.16 ± 0.009 µM. Also, the “Cytotoxicity activity (%)” value in the data set with Vero cells (setting [2]) was 13.01%.
With `O=C1NC(=O)C(=Cc2ccc(-c3cccc(Cl)c3Cl)o2)C(=O)N1` [WNN3989-H007], the IC50 on SARS-CoV-2 M^pro (IC50 (μM) at S/KM 1/2) stood at 0.11 ± 0.01 µM; on SARS-CoV-2 M^pro (setting [1]), 0.552 ± 0.12 µM. The “Cytotoxicity activity (%)” value in the data set with Vero cells (setting [2]) is -4.89%.
In the case of `O=C1NC(=O)N(Cc2ccccc2)C(=O)C1=Cc1ccco1` [WNN3797-H008], the IC50 was determined as 0.67 ± 0.28 µM on SARS-CoV-2 M^pro (IC50 (μM) at S/KM 1/2), 0.55 ± 0.02 µM at SARS-CoV-2 M^pro (IC50 (μM) at S/KM 2) and 0.172 µM at SARS-CoV-2 M^pro (setting [1]). In addition, in the data set with Vero cells (setting [2]), the “Cytotoxicity activity (%)” value is on record as -7.75%.
Regarding `CC(C(=O)NCc1ccco1)n1c(Cc2c(Cl)cccc2Cl)nc2ccccc21` (stereo not shown) [CD3531-C011], the “Cytotoxicity activity (%)” value in the data set on Vero cells (setting [3]) was -14.28%.
Turning to `COc1ccc(-n2c(S)nnc2CNc2ccc(C)cc2)cc1` [RUS0105-C005], the IC50 on SARS-CoV-2 M^pro (setting [1]) is 0.478 ± 0.009 µM. Also, in the data set on Vero cells (setting [2]), the “Cytotoxicity activity (%)” value was determined as 5.87%.
For `O=c1sc2ccccc2n1Cc1n[nH]c(=S)n1-c1ccccc1` [JK0946-F007], the IC50 turned out to be 9.67 ± 3.64 µM against SARS-CoV-2 M^pro (IC50 (μM) at S/KM 1); 3.56 ± 0.62 µM against SARS-CoV-2 M^pro (IC50 (μM) at S/KM 1/2); 8.97 ± 2.32 µM at SARS-CoV-2 M^pro (IC50 (μM) at S/KM 2); 8.7 ± 0.9 µM at SARS-CoV-2 M^pro (setting [4]); 4.2 ± 0.6 µM on SARS-CoV-2 M^pro (setting [5]). The “Cytotoxicity activity (%)” value with Vero cells (setting [3]) was -4.63%.
For `O=C(Oc1cncc(Cl)c1)c1sccc1Cl` [WNN2048-F004], the “dependence of apparent IC50 on substrate concentration” value on SARS-CoV-2 M^pro is “consistent IC50 that is not affected by substrate concentration”. The IC50 on SARS-CoV-2 M^pro (IC50 (μM) at S/KM 1) came out at 0.35 ± 0.11 µM; at SARS-CoV-2 M^pro (IC50 (μM) at S/KM 2), 0.33 ± 0.07 µM; on SARS-CoV-2 M^pro (setting [1]), 0.131 ± 0.011 µM; at SARS-CoV-2 M^pro (running text and Figure 4A, read-out: IC50 against M^pro), 0.103 ± 0.0052 µM. The “Cytotoxicity activity (%)” value in the data set with Vero cells (setting [2]) was 6.16%. In addition, in the data set with Vero cells (in words), the cytotoxicity effect entry is reported as “without cytotoxicity effect”.
As to `O=C(NCc1n[nH]c(=S)n1-c1ccc(Br)cc1)c1ccc(Cl)cc1Cl` [JK0108-D008], the IC50 on SARS-CoV-2 M^pro (IC50 (μM) at S/KM 1) was found to be 4.37 ± 0.84 µM; against SARS-CoV-2 M^pro (IC50 (μM) at S/KM 2) it was 5.83 ± 1.68 µM; at SARS-CoV-2 M^pro (setting [5]) it was 0.5 µM. In the data set with Vero cells (setting [3]), the “Cytotoxicity activity (%)” value is recorded as -8.62%.
`COc1ccc(-n2c(S)nnc2CNC(=O)c2cc(OC)c(OC)c(OC)c2)cc1` [JK0109-C011]: the IC50 on SARS-CoV-2 M^pro (IC50 (μM) at S/KM 1) was 16.1 ± 3.07 µM; against SARS-CoV-2 M^pro (IC50 (μM) at S/KM 1/2) it was 2.3 ± 0.96 µM; on SARS-CoV-2 M^pro (setting [4]), 42.8 ± 1.7 µM. Besides, in the data set with Vero cells (setting [3]), the “Cytotoxicity activity (%)” value is recorded as -9.42%.
In the case of `COc1ccc(-n2c(CNC(=O)COc3ccc(Cl)cc3Cl)n[nH]c2=S)cc1` [JK0109-B011], the IC50 against SARS-CoV-2 M^pro (IC50 (μM) at S/KM 1) came to 1.53 ± 0.58 µM; at SARS-CoV-2 M^pro (IC50 (μM) at S/KM 1/2) it was 1.33 ± 0.26 µM; at SARS-CoV-2 M^pro (setting [4]) it was 21.8 ± 0.3 µM. Moreover, in the data set on Vero cells (setting [3]), the “Cytotoxicity activity (%)” value was -7.31%.
For `Cc1ccc(NCc2n[nH]c(=S)n2-c2ccccc2)cc1` [WNN2867-E005], at SARS-CoV-2 M^pro (setting [1]), the IC50 turned out to be 0.466 ± 0.101 µM. Also, in the data set with Vero cells (setting [2]), the “Cytotoxicity activity (%)” value is -6.94%.
Regarding `O=C(COc1ccc(Cl)cc1)NCc1n[nH]c(=S)n1-c1ccc(Br)cc1` [JK0109-H005], the “IC50 (μM) at S/KM 1” value on SARS-CoV-2 M^pro stood at 4.17 ± 1.29 µM. For the same compound, the IC50 is 1.33 ± 0.28 µM against SARS-CoV-2 M^pro (IC50 (μM) at S/KM 1/2), 3.36 ± 0.47 µM against SARS-CoV-2 M^pro (IC50 (μM) at S/KM 2) and 4.2 ± 0.7 µM on SARS-CoV-2 M^pro (setting [4]). In addition, the “Cytotoxicity activity (%)” value in the data set on Vero cells (setting [3]) was -4.08%.
In the case of `CCOc1cc(C(=O)NCc2n[nH]c(=S)n2-c2ccc(Br)cc2)cc(OCC)c1OCC` [JK0109-B004], the IC50 at SARS-CoV-2 M^pro (IC50 (μM) at S/KM 1) was 1.62 ± 0.24 µM; on SARS-CoV-2 M^pro (IC50 (μM) at S/KM 1/2) it was 1.01 ± 0.25 µM; against SARS-CoV-2 M^pro (IC50 (μM) at S/KM 2), 2.17 ± 0.27 µM; on SARS-CoV-2 M^pro (setting [4]), 9.7 ± 0.1 µM. Also, the “Cytotoxicity activity (%)” value with Vero cells (setting [3]) is recorded as -7.5%.
For `COc1ccc(CN2C(=O)NC(=O)/C(=C\c3ccco3)C2=O)cc1` [CDE0972-G011], the figures for the IC50 on SARS-CoV-2 M^pro (read-out: IC50 (μM) at S/KM 1), at SARS-CoV-2 M^pro (read-out: IC50 (μM) at S/KM 1/2) and on SARS-CoV-2 M^pro (read-out: IC50 (μM) at S/KM 2) were 2.86 ± 0.53 µM, 2.17 ± 0.2 µM and 3.5 ± 0.42 µM, respectively. Moreover, the “Cytotoxicity activity (%)” value in the data set with Vero cells (setting [2]) is -7.84%.
As for `CCC(C(=O)NCc1ccco1)n1c(Cc2c(Cl)cccc2Cl)nc2ccccc21` (stereo not shown) [CD3226-D010], the “Cytotoxicity activity (%)” value in the data set on Vero cells (setting [3]) is -22.39%.
Take `O=C1NC(=O)C(=Cc2ccc(-c3cccc(Cl)c3)o2)C(=O)N1` [RUS0245-E010]: the IC50 is 0.25 ± 0.04 µM against SARS-CoV-2 M^pro (IC50 (μM) at S/KM 1), 0.34 ± 0.04 µM against SARS-CoV-2 M^pro (IC50 (μM) at S/KM 1/2), 0.34 ± 0.09 µM against SARS-CoV-2 M^pro (IC50 (μM) at S/KM 2) and 0.196 ± 0.009 µM at SARS-CoV-2 M^pro (setting [1]). Also, in the data set with Vero cells (setting [2]), the “Cytotoxicity activity (%)” value was -8.14%.
